According to patent US10300065B2, “Method of treating or prevention of atherothrombotic events in patients with history of myocardial infarction” (ASTRAZENECA AB, priority 2015, dated 2019):
Read-outs that look alike come from different tables or passages of the source.

Key:
[1] = system: patients with a history of myocardial infarction; details: for proportion of patients who prematurely discontinued treatment: over the duration of the trial
From the text: Any erroneously treated patients (e.g., randomized to ticagrelor but actually given placebo) were to be accounted for in the actual treatment group.
The primary efficacy endpoint was the composite of cardiovascular death, myocardial infarction, or stroke. Secondary endpoints were cardiovascular death and all-cause mortality. The analysis of secondary endpoints proceeded in a hierarchical fashion, starting with cardiovascular death and then death from any cause. Additional endpoints listed below were evaluated on an exploratory basis. Exploratory efficacy endpoints included substituting coronary heart disease death for cardiovascular death, and the additional end points of urgent coronary revascularization, unstable angina, and transient ischemic attack. The primary safety endpoint was TIMI major bleeding. Other safety endpoints included intracranial hemorrhage (ICH) and fatal bleeding. […] A central clinical events committee whose members were unaware of the treatment assignments adjudicated all efficacy endpoints and bleeding episodes.
Safety analyses included all randomized patients who received at least one dose of study drug and for whom post-dose data were available. Patients were censored at the first of the pre-specified Common Study End Date, withdrawal of consent, or the last clinical event assessment. Safety was analyzed as on-treatment including all events occurring after first dose and within 7 days after the last dose of study drug. […] Event rates are expressed as Kaplan-Meier estimates of cumulative incidence.

[2] = room temperature; crystalline powder; cited from earlier work
platelets = details: for most patients; cited from earlier work
[3] = cited from earlier work
[4] = 60 mg bid, intention-to-treat population
[5] = 90 mg bid (N = 6988), listed as ticagrelor
[6] = 90 mg bid, intention-to-treat population

CCCSc1nc(N[C@@H]2C[C@H]2c2ccc(F)c(F)c2)c2nnn([C@@H]3C[C@H](OCCO)[C@@H](O)[C@H]3O)c2n1 [Ticagrelor, (1S,2S,3R,5S)-3-[7-{[(1R,2S)-2-(3,4-difluorophenyl)cyclopropyl]amino}-5-(propylthio)-3H-[1,2,3]-triazolo[4,5-d]pyrimidin-3-yl]-5-(2-hydroxyethoxy)cyclopentane-1,2-diol]
Death: n [1, 4]: 289 | Non-Cardiovascular death: (%) [1, 4]: (1.6) % | Non-Cardiovascular death: n [1, 4]: 113 | proportion of patients who prematurely discontinued treatment ([1]; 60 mg): 28.7% | Dyspnea, 3-year event rate ([1]; 90 mg bid): 18.9% | Fatal bleeding: ARI (%) ([1]; 90 mg bid): −0.15% | Hypotension ([1]; 90 mg bid): 0.66 events/100 pt years | ICH: ARI (%) ([1]; 90 mg bid): 0.09% | ICH: NNH ([1]; 90 mg bid): 1111 | TIMI major bleeding: ARI (%) ([1]; 90 mg bid): 1.54% | TIMI major bleeding: NNH ([1]; 90 mg bid): 65 | frequency of death (including bleeding) ([1]; 90 mg bid): 4.8% | frequency of death, bleeding events excluded ([1]; 90 mg bid): 4.4% | median duration of resolved dyspnea adverse events ([1]; 90 mg bid): 22 days | Adverse event leading to death: (%) ([1]; 90 mg bid (N = 6988)): (2.3) % | Adverse event leading to death: n ([1]; 90 mg bid (N = 6988)): 161 | Adverse event leading to discontinuation of study drug: (%) ([1]; 90 mg bid (N = 6988)): (18.7) % | Adverse event leading to discontinuation of study drug: n ([1]; 90 mg bid (N = 6988)): 1306 | Any adverse event: (%) ([1]; 90 mg bid (N = 6988)): (76.2) % | Any adverse event: n ([1]; 90 mg bid (N = 6988)): 5327 | Any serious adverse event: (%) ([1]; 90 mg bid (N = 6988)): (21.7) % | Any serious adverse event: n ([1]; 90 mg bid (N = 6988)): 1514 | Bleeding leading to study drug discontinuation: 3-year Kaplan-Meier estimate ([1]; 90 mg bid (N = 6988)): (7.80) % | Bleeding leading to study drug discontinuation: n ([1]; 90 mg bid (N = 6988)): 454 | Bleeding requiring transfusion: 3-year Kaplan-Meier estimate ([1]; 90 mg bid (N = 6988)): (2.40) % | Bleeding requiring transfusion: n ([1]; 90 mg bid (N = 6988)): 122 | Bradyarrhythmia adverse event: (%) ([1]; 90 mg bid (N = 6988)): (1.5) % | Bradyarrhythmia adverse event: n ([1]; 90 mg bid (N = 6988)): 105 | Dyspnea AE: (%) ([1]; 90 mg bid (N = 6988)): (17.22) % | Dyspnea AE: n ([1]; 90 mg bid (N = 6988)): 1204 | Dyspnea SAE: (%) ([1]; 90 mg bid (N = 6988)): (0.3) % | Dyspnea SAE: n ([1]; 90 mg bid (N = 6988)): 22 | Dyspnea leading to study drug discontinuation: (%) ([1]; 90 mg bid (N = 6988)): (6.2) % | Dyspnea leading to study drug discontinuation: n ([1]; 90 mg bid (N = 6988)): 430 | Fatal Bleeding: 3-year Kaplan-Meier estimate ([1]; 90 mg bid (N = 6988)): (0.11) % | Fatal Bleeding: n ([1]; 90 mg bid (N = 6988)): 6 | Fatal bleeding or non-fatal intracranial hemorrhage: 3-year Kaplan-Meier estimate ([1]; 90 mg bid (N = 6988)): (0.71) % | Fatal bleeding or non-fatal intracranial hemorrhage: n ([1]; 90 mg bid (N = 6988)): 33 | Gout adverse event: (%) ([1]; 90 mg bid (N = 6988)): (1.4) % | Gout adverse event: n ([1]; 90 mg bid (N = 6988)): 99 | Intracranial Hemorrhage: 3-year Kaplan-Meier estimate ([1]; 90 mg bid (N = 6988)): (0.56) % | Intracranial Hemorrhage: n ([1]; 90 mg bid (N = 6988)): 29 | Renal adverse event: (%) ([1]; 90 mg bid (N = 6988)): (2.4) % | Renal adverse event: n ([1]; 90 mg bid (N = 6988)): 166 | Serious adverse event leading to discontinuation of study drug: (%) ([1]; 90 mg bid (N = 6988)): (3.7) % | Serious adverse event leading to discontinuation of study drug: n ([1]; 90 mg bid (N = 6988)): 256 | TIMI Major bleeding: 3-year Kaplan-Meier estimate ([1]; 90 mg bid (N = 6988)): (2.60) % | TIMI Major bleeding: n ([1]; 90 mg bid (N = 6988)): 127 | TIMI Minor bleeding: 3-year Kaplan-Meier estimate ([1]; 90 mg bid (N = 6988)): (1.31) % | TIMI Minor bleeding: n ([1]; 90 mg bid (N = 6988)): 66 | Bleeding leading to study drug discontinuation: 3-year Kaplan-Meier estimate [1, 5]: 7.8% | Bleeding requiring transfusion: 3-year Kaplan-Meier estimate [1, 5]: 2.4% | Dyspnea leading to study drug discontinuation: (%) [1, 5]: 6.5% | Fatal Bleeding: 3-year Kaplan-Meier estimate [1, 5]: 0.1% | Intracranial Hemorrhage: 3-year Kaplan-Meier estimate [1, 5]: 0.6% | TIMI Major bleeding: 3-year Kaplan-Meier estimate [1, 5]: 2.60% | Bleeding leading to study drug discontinuation: HR ([1]; 90 mg bid vs Placebo): 5.67 | Bleeding requiring transfusion: HR ([1]; 90 mg bid vs Placebo): 3.75 | Dyspnea AE: HR ([1]; 90 mg bid vs Placebo): 3.55 | Dyspnea SAE: HR ([1]; 90 mg bid vs Placebo): 3.02 | Dyspnea leading to study drug discontinuation: HR ([1]; 90 mg bid vs Placebo): 8.89 | Fatal Bleeding: HR ([1]; 90 mg bid vs Placebo): 0.58 | Fatal bleeding or non-fatal intracranial hemorrhage: HR ([1]; 90 mg bid vs Placebo): 1.20 | Intracranial Hemorrhage: HR ([1]; 90 mg bid vs Placebo): 1.44 | TIMI Major bleeding: HR ([1]; 90 mg bid vs Placebo): 2.69 | TIMI Minor bleeding: HR ([1]; 90 mg bid vs Placebo): 4.15 | TIMI major bleeding events per year if 10,000 patients were started on treatment versus placebo ([1]; 90 mg bid, intention-to-treat data): 41 | Death: (%) [1, 6]: (4.6) % | Death: n [1, 6]: 326 | Non-Cardiovascular death: (%) [1, 6]: (2.0) % | Non-Cardiovascular death: n [1, 6]: 142 | proportion of patients who prematurely discontinued treatment ([1]; 90 mg): 32.0% | serum uric acid level increase from baseline ([1]; PEGASUS, 60 mg bid): approximately 0.2 mg/dL | Gout, patients ([1]; PEGASUS, experimental arm): 1.5% | dyspneic episodes characterized as mild ([1]; either dose of ticagrelor): 57% | dyspneic episodes characterized as moderate ([1]; either dose of ticagrelor): 38% | dyspnea as a serious adverse event, 3-year rate ([1]; patients on ticagrelor): 0.3% | aqueous solubility [2]: approximately 10 μg/mL | onset of antiplatelet effect (platelets): ≤ 2 h | increase in AUC ([3]; high-fat meal): 21% | mean absolute bioavailability ([3]; human, in vivo): about 36% | steady state volume of distribution ([3]; human, in vivo): 88 L | median tmax ([3]; in patients after administration of ticagrelor): 1.5 h
